Experimental data as given in patent US20210060006A1, “COMPOSITIONS AND METHODS FOR TREATING GLIOBLASTOMA BY MODULATING A MGMT ENHANCER” (The Trustees of Columbia University in the City of New York, priority 2018, published 2021).

Experiments:
MGMT [1] = details: SAHA in combination with TMZ; cited from earlier work
[2] = test system: SKMG3 parental cells and enhancer deletion clones; assay: Clonogenic assay of TMZ sensitivity; type: cell-based, human; details: for IC50: Homo sapiens
Method: Cell viability was determined using clonogenic assay.
FIG. 5F is a summary of TMZ IC50 in SKMG3 clones with or without O6BG pre-treatment.
Clonogenic assays were performed to assess the effect of disrupted enhancer on TMZ sensitivity. Briefly, SKMG3 parental cells and enhancer deletion clones were plated in 6 wells plates (250 cells/well), treated with graded concentration of TMZ in presence or absence of O6BG and were cultured for 2 weeks. Colonies were fixed and stained with crystal violet (0.005% (w/v) Crystal violet, 25% (v/v) Methanol). Colonies with >50 cells were manually counted, IC50 calculated by GraphPad Prism 7 using multiparametric nonlinear regression model.

MGMT [3] = details: combination with TMZ compared to TMZ alone; cited from earlier work

O=C(CCCCCCC(=O)Nc1ccccc1)NO [SAHA]
MGMT expression (MGMT [1]): promotes elevation of MGMT expression

Cn1nnc2c(C(N)=O)ncn2c1=O [TMZ, temozolomide]
IC50 ([2]; K-M enhancer deleted (3.3 kb) SKMG3 clones): < 10 µM
IC50 ([2]; parental SKMG3 lines and wild type control clone): > 100 µM

Nc1nc(OCc2ccccc2)c2nc[nH]c2n1 [O6BG, O6-benzylguanine]
TMZ sensitizing effect of enhancer deletion ([2]; group pre-treated with 10 μM O6BG 1 h prior to temozolomide): not observed
clinical benefit (MGMT [3]): no clinical benefit
hematologic toxicities (MGMT [3]): enhanced hematologic toxicities
therapeutic window (MGMT [3]): reduced therapeutic window
